The values below come from patent US5866576A, “Epoxide-containing compounds” (Cell Therapeutics, Inc., priority 1997, dated 1999).

In data set [1] the test system is Balb/3T3 cells. Put plainly: PDGF-stimulated Balb/3T3 cell proliferation. Format: cell-based. To be noted: FIGS. 8A (1409), 8B (1560); PDGF/BB. How it is done:
Balb/3T3 cells respond vigorously to PDGF stimulation, and are useful in vitro models for further study of PDGF-induced proliferation. Disregulated PDGF-proliferative response has been linked to a variety of diseases, including, e.g., restenosis, atherosclerosis, fibrosis, and tumor cell angiogenesis.
Balb/3T3 cells were maintained in exponential growth. The cells were removed from a flask with EDTA and plated into 96 well plates at 3000 cells/well. After 48 hours, the media was removed, the cells washed once with PBS and serum free media and the cultures allowed to rest for a 24 hour period. Inventive compounds were added to the wells containing media and Balb/3T3 cells one hour prior to incubation with PDGF/BB, added at constant 10 μM concentrations along with 1 μ Ci 3-H-thymidine dye. Cells were subsequently incubated for 18-24 hours, harvested, and incorporated thymidine assessed on a Packard Topcount to determine degree of cell proliferation. Data obtained in this assay was used to determine experimental 50% inhibition concentrations for the inventive compounds tested.

Data set [2] deals with Balb/3T3 cells. The experiment in a line: Balb/3T3 cytotoxicity assay (BCECF-AM). In kind it is cell-based. To be noted: FIGS. 8C, 8D. How it is done:
In conjuction with the Balb/3T3 proliferation assay conducted above, a Balb/3T3 cytotoxicity assay was conducted to determine that the inhibition on proliferation was not due to cytotoxic effects. This assay is similar to the assay decribed above except tritiated thymidine was not added and after 18-24 hours incubation with PDGF/BB and a lOuM solution of 2,7-bis-(2-carboxyethyl)-5(and-6)carboxyflouresceinacetoxymethyl ester (BCECF-AM) was added for 30 minutes at 37° C. (BCECF is a compound that when cleaved by esterases, yields a fluorescent product in viable cells only, therefore providing a measure of viable cell numbers). Following sufficient incubation, BCECF is replaced with PBS and the plate examined with flourescence in a Millipore "cytofluor." The data is compiled and plotted.

Take `Cn1cnc2c1c(=O)n(CCCCCCCC1CO1)c(=O)n2C` (centres unmarked) [Compound 1560, 1-(8,9-Oxidononyl)-3,7-dimethylxanthine]: in data set [1], the “inhibition of Balb/3T3 proliferation” value is “inhibit Balb/3T3 proliferation”. Also, the cytotoxic effects result in data set [2] was “without exhibiting cytotoxic effects”.
